Patent publication US20100048604A1, “Ligands for Aldoketoreductases” (priority 2004, published 2010)

Columns and labels:
Type in all cases: biochemical
Details in all cases: 12 hour incubation, 30-50 μM substrate, pH 7, 250 μM NAD(P)H
panel of oxidoreductases = test: Enzymatic screening of probes 1-7 against a panel of oxidoreductases (enzymes other than 3α-HSDs)
Experimental: (§1) FIG. 4. Screening of probes 1-7 against a panel of oxidoreductases Percentage fluorescence increase after 12 hour incubation of 30-50 μM substrate, 100 mM phosphate buffer (pH 7), 250 μM NAD(P)H, and 100 nM enzyme. Substrates 1, 2, 3, and 4 monitored at λexc=340 nm, λem=440 nm. Substrates 5, 6, and 7 monitored at λexc=440 nm, λem=510 nm. 3HSD, 3α-hydroxysteroid dehydrogenase (PT, Pseudomonas testosteroni), HLAD, horse liver alcohol dehydrogenase, TBAD, Thermoanaerobium brockii alcohol dehydrogenase, BS 12HSD, Bacillus sp. 12α-hydroxysteroid dehydrogenase, ABAD, amyloid-β binding alcohol dehydrogenase (human), GDH, glycerol dehydrogenase, YADH, yeast alcohol dehydrogenase, LDH, lactate dehydrogenase.
Probes 1-7 (see FIG. 3) were subsequently tested against a collection of dehydrogenases in the presence of NAD(P)H; the extent of reduction was assessed by the measurement of fluorescence intensity at the emission maximum of each probe (FIG. 4). […]
Initial Screening with Fluorogenic Substrates: Screening of the first fluorogenic substrates for enzymatic activity has been described above. […] Formation of the alcohol reduction product was determined by reading the fluorescence arising from excitation at the corresponding alcohol at either 340 nm (27-30) or 440 nm (31-33).

[1] = molecular target: T1, rat 3α-hydroxysteroid dehydrogenase (Rattus norvegicus, UniProt P23457); test: Enzymatic screening of probes 1-7 against a panel of oxidoreductases
T1 construct: gift of Professor Trevor Penning (University of Pennsylvania School of Medicine)
T1 sequence (P23457 1-322): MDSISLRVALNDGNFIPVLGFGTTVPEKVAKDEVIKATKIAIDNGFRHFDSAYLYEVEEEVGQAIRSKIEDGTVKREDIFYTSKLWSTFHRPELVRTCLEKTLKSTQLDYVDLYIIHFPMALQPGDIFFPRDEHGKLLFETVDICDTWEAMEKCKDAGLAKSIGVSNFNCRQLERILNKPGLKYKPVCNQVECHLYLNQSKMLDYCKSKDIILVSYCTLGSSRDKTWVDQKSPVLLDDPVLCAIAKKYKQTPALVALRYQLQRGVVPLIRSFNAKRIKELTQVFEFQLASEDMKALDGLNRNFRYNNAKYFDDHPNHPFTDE
Experimental: as §1
(§2) Probes 1-7 (see FIG. 3) were subsequently tested against a collection of dehydrogenases in the presence of NAD(P)H; the extent of reduction was assessed by the measurement of fluorescence intensity at the emission maximum of each probe (FIG. 4). This assay included enzymes from two major oxidoreductase superfamilies, the short chain alcohol dehydrogenases (SDR) and the aldo-keto reductases (AKR), ranging from bacterial to mammalian and human enzymes.
(§3) Horse Liver alcohol dehydrogenase (Lot Number 51K7520), Thermoanaerobium brockii NADP^+ dependent alcohol dehydrogenase (Lot Number 033K4093), Pseudomonas testosteroni 3α-hydroxysteroid dehydrogenase (Lot Number 053K8624), and Bacillus sphaericus 12α-hydroxysteroid dehydrogenase (Lot Number 70K16621) were purchased from Sigma (St. Louis, Mo.). Yeast alcohol dehydrogenase (Lot Number 93122920), glycerol dehydrogenase (Lot Number 92110122), (D)-lactate dehydrogenase (Lot Number 92419236), (L)-lactate dehydrogenase (Lot Number 92801821), NAD^+, NADP^+, NADH, and NADPH were purchased from Roche. Enzyme activity was confirmed by compliance to supplier's quality control assays prior to usage. Rat and human 3α-hydroxysteroid dehydrogenases were provided by Professor Trevor Penning (University of Pennsylvania School of Medicine) and human amyloid-β peptide binding alcohol dehydrogenase was supplied by Professor Shi Du Yan (Columbia University School for Physicians and Surgeons).
(§4) Enzymatic assays were performed in triplicate on selected fluorogenic substrates according to the following protocol. To each well of a FALCON 96-well black flat bottom plate was added (1) 40 μL of 500 mM potassium phosphate buffer pH 7.0, (2) 113 μL of double deionized water, (3) 25 μL of 2 mM NADH (except for Pseudomonas testosteroni 3α-hydroxysteroid dehydrogenase, rat 3α-hydroxysteroid dehydrogenase, and Thermoanaerobium brockii NADP^+ dependent alcohol dehydrogenase, in which cases 2 mM of NADPH was used), (4) 2 μL of a 3-5 mM solution of substrate in DMSO, and (5) 20 μL of a 40-50 μg/mL solution of enzyme. Reaction volumes were mixed thoroughly after addition of cofactor, substrate, and enzyme and allowed to react 12 hours at 25° C. Scanning of the 96-well plate was performed by the MicroMax 384 connected to a Jobin Yvon Fluorolog through F-3000 fiber optic cables.
(§5) Initial Screening with Fluorogenic Substrates: Screening of the first fluorogenic substrates for enzymatic activity has been described above. In short, 200 μL enzymatic assay volumes containing 100 mM potassium phosphate buffer (pH 7), 250 μM NAD(P)H cofactor, and 30-50 μM of ketones (1-7) were incubated for 12 hours on a black FALCON 96-well plate. Formation of the alcohol reduction product was determined by reading the fluorescence arising from excitation at the corresponding alcohol at either 340 nm (27-30) or 440 nm (31-33).

[2] = molecular target: T2, horse liver alcohol dehydrogenase (HLAD) (Equus caballus, UniProt P00327); test: as above
T2 construct: purchased Sigma (St. Louis, Mo.) Lot Number 51K7520 (catalogue number not given)
Experimental: as §1, §2, §3, §4, §5

[3] = molecular target: T3, Pseudomonas testosteroni 3α-hydroxysteroid dehydrogenase (Comamonas testosteroni, UniProt P80702); test: as above
T3 construct: purchased Sigma (St. Louis, Mo.) Lot Number 053K8624 (catalogue number not given)
Experimental: as §1, §2, §3, §4, §5

[4] = molecular target: T4, Thermoanaerobium brockii alcohol dehydrogenase (TBAD) (Thermoanaerobacter brockii, UniProt P14941); test: as above
T4 construct: purchased Sigma (St. Louis, Mo.) Lot Number 033K4093 (catalogue number not given)
T4 sequence (P14941 1-352): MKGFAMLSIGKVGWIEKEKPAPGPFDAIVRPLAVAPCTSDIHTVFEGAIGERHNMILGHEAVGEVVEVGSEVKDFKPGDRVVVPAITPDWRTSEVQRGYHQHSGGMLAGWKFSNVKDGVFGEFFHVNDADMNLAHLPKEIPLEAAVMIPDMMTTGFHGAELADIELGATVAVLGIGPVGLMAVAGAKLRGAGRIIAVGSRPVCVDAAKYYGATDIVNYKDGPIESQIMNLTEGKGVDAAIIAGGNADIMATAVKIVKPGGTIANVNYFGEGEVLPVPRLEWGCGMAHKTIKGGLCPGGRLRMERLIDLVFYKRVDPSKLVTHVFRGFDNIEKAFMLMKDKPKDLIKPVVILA
Experimental: as §1, §2, §3, §4, §5

T3 sequence (P80702 whole entry): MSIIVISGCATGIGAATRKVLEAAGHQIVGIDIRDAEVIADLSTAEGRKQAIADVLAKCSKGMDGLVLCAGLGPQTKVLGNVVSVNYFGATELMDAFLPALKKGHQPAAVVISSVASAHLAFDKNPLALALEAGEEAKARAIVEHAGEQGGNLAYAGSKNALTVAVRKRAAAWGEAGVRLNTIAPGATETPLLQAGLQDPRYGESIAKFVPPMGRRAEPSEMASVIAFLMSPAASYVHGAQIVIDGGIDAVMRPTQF
T2 sequence (P00327 2-375 limits assumed): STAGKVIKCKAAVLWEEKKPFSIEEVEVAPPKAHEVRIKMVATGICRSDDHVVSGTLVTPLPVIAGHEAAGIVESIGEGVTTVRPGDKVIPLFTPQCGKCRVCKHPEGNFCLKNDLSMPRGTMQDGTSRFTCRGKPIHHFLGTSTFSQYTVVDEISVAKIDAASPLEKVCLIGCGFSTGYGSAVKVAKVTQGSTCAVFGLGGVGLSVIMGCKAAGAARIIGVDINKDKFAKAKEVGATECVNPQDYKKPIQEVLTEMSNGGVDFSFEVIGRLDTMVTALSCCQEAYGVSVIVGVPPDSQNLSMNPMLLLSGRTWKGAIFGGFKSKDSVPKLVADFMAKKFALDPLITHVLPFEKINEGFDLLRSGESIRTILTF

SMILES: CC(=O)c1cc(=O)oc2c3c4c(cc12)CCCN4CCC3 [compound 5, 8-Acetyl-2,3,5,6-tetrahydro-1H,4H-11-oxa-3a-aza-benzo[de]anthracen-10-one]
- reduction of probe by the other enzymes of the panel (panel of oxidoreductases): No other enzymes examined in this assay catalyzed the reduction
- reduction of probe (fluorescence increase) [1]: converted rapidly and selectively
- reduction of probe (fluorescence increase) [2]: not acceptant
- reduction of probe (fluorescence increase) [3]: converted rapidly and selectively
- reduction of probe (fluorescence increase) [4]: not acceptant
